Measured values reported in US20150025031A1, “METABOLIC DOWNREGULATION FOR CELL SURVIVAL” (WAKE FOREST UNIVERSITY HEALTH SCIENCES, priority 2012, published 2015).
Like-named read-outs stand apart in the source and are kept apart here.

What was measured:
C2C12 cells [1] = assay: MTS metabolic activity per cell, C2C12 under 0.1% hypoxia; type: cell-based, murine; conditions: 5 mM adenosine
Experimental: (§1) Hypoxic condition was maintained with a gas mixture containing 0.1% O2, 5% CO2 and 94.9% N2 at 37° C. and full humidity in an X-Vivo System (Biospherix). […] The hypoxic groups were then placed to the hypoxic chamber and incubated up to day 11, whereas the normoxic group continued to be incubated in the regular incubator. No medium change was made on both normoxic and hypoxic groups up to day 11. After transfer to normoxic conditions, cells were cultured in the regular incubator with an exchange of no adenosine-containing, fresh medium every third day.
Mitochondrial metabolic activity of viable cells was assessed using a 3-(4,5-dimethylthiazol-2-yl)-5-(3-carboxymethoxyphenyl)-2-(4-sulfophenyl)-2H-tetrazolium (MTS) assay (Promega). Cells were rinsed with PBS three times followed by the addition of 120 μL of MTS reagent to each well. After an hour of incubation, optical density (OD) of a brown formazan product by dehydrogenase enzymes in metabolically active cells was measured with a microplate reader at 490 nm. The mean OD value obtained from media blanks was standardized as […]. For some analyses, metabolic activity measured at each time point was normalized by the cell number obtained from PicoGreen assay as previously described. The total metabolic activity represented by the area under the curve over time was computed using Origin Pro v. 8 (Origin Lab Corporation).

C2C12 cells [2] = assay: Intracellular ATP level of C2C12 cells under hypoxia; type: cell-based, murine; conditions: 5 mM adenosine
Experimental: as §1
Intracellular ATP was measured by using the ATP Bioluminescence Assay Kit HS II (Roche Applied Science). Cells were lysed with 50 μL of lysis buffer and transferred into a well, then 50 μl of luciferase reagent was added to it. After mixing, the light emitted was measured and integrated for 10 seconds by using a SpectraMax M5 luminometer (Molecular Devices). The blank value (from a well containing no ATP) was subtracted from each sample's raw data. ATP concentrations were calculated from the linear part of the standard curve prepared with serial dilutions of a known concentration of ATP and expressed as moles per cell. This, in turn, was re-calculated to a percent ATP of that expressed in the cells grown under normoxic condition.

C2C12 murine myoblasts = assay: C2C12 cell counts (PicoGreen dsDNA) under 0.1% hypoxia, then normoxia; type: cell-based
Experimental: C2C12 murine myoblasts (ATCC) were cultured in a growth medium containing Dulbecco's modified Eagle's medium (DMEM, Gibco) supplemented with 10% FBS, 500 U/mL penicillin and 500 μg/mL streptomycin.
as §1
Cell proliferation of each group was determined by a Quanti-iT PicoGreen dsDNA Kit (Invitrogen). After washed with PBS, cells were lysed with 55 μL of RIPA buffer (Sigma) on ice for 5 min, then the supernatants were mixed with an equal volume of PicoGreen dsDNA quantitation reagent, a fluorescent DNA dye (excitation at 480 nm; emission at 520 nm). The DNA content was quantified using a SpectraMax M5 microplate reader (Molecular Devices). The number of cells was calculated using a standard curve plotted from fluorescent readings of serial dilutions of a known concentration of cells.
Cell viability was visualized using a calcein AM (Invitrogen) where viable cells fluoresce green through the reaction of calcein AM.

C2C12 mouse myoblasts = conditions: 5 mM; for cellular metabolism under hypoxia: MTS
C2C12 cells [3] = assay: Myotube formation of hypoxia-survived C2C12 cells; type: cell-based, murine; conditions: after 11 days adenosine under hypoxia, 2% horse serum medium 6 days
Experimental: After C2C12 cells that survived the hypoxic stress in the presence of adenosine were transferred to normoxic conditions without further supply of adenosine, they were cultured continuously for 3 days in the growth medium followed by 2% horse serum-containing medium for another 6 days. […] Nuclei were counterstained with DAPI (Vector). Photomicrographs were obtained using a Leica inverted fluorescence microscope. Myotube formation was also observed by Giemsa staining (1:20, Sigma-Aldrich) using a Zeiss upright light microscope.

Soleus muscle tissues = assay: Survival of soleus muscle tissue under hypoxia (H&E, EthD-1 dead assay); type: cell-based, Sprague Dawley rats; conditions: 5 mM adenosine, 10 days hypoxic culture
Experimental: Soleus muscle tissues dissected immediately after sacrifice of Sprague Dawley rats (17 weeks old, 380-400 g, Harlan) were assigned to one of three groups in the growth medium: (1) native tissue group (2) no adenosine-treated hypoxic group and (3) hypoxic group with 5 mM adenosine supplemented in 2 mL of medium. The media was changed every third day. At day 10, a half of the tissue sample was fixed in 10% neutral buffered formalin (Sigma-Aldrich), 6 μm sections were generated by a cryotome (Leica), and stained with hematoxyline and eosin (H&E). Microscopic analysis was performed using a light microscope (Zeiss). Dead assay was assessed on the remaining tissues using 4 μM ethidium homodimer-1 (EthD-1, Invitrogen) to stain dead cells with damaged cell membranes. The stained sections were observed using a fluorescent microscope (Leica). The number of dead cells was quantitated using the “analyze particle” method with Image J software (U.S. National Institute of Health) on the fluorescence images, and its percentage was calculated based on the number of DAPI-stained cells on each section.

[4] = test system: Rat tibialis anterior (TA) muscle tissues; assay: In vitro ischemic tibialis anterior muscle tissue survival (H&E, TUNEL); type: cell-based, Sprague Dawley rats; conditions: 5 mM injected, 3 days incubation
Experimental: Rat tibialis anterior (TA) muscle tissues were dissected immediately after sacrifice of Sprague Dawley rats (17 weeks old, 380-400 g, Harlan), injected with blank, 5 mM of adenosine or cladribine, and then incubated in 5 mL of complete media for 3 days.
The tissue samples were fixed in 10% neutral buffered formalin (Sigma-Aldrich), 6 μm sections were generated by a cryotome (Leica), and stained with hematoxyline and eosin (H&E) and with TUNEL staining. Microscopic analyses were performed using a light microscope (Zeiss M1) and ImagePro software.

With `Nc1ncnc2c1ncn2[C@@H]1O[C@H](CO)[C@@H](O)[C@H]1O` [adenosine] the “metabolic activity in early hypoxic phase” value (C2C12 cells [1]; 0.1% hypoxia, MTS per cell) was “suppressed initially up to day 5”, the “metabolic activity maintained, of the initial metabolic activity” value (C2C12 cells [1]; 0.1% hypoxia, day 11, MTS per cell) was “approximately 68%” and the “metabolic activity after transfer to normoxic conditions” value (C2C12 cells [1]; after 11 days hypoxia) was “restored to a level equivalent to that in normoxic cells”. The “intracellular ATP level, percentage of that in normoxic cells” value (C2C12 cells [2]; 0.1% hypoxia, day 11) was 18%, the “intracellular ATP level vs control cells” value (C2C12 cells [2]; throughout the hypoxic duration, p<0.05) was “consistently higher ATP level” and the “growth recovery after transfer to normoxic conditions” value (C2C12 murine myoblasts; 0.05 mM adenosine, after 11 days 0.1% hypoxia) was “never recovered even after transfer to normoxic conditions”. For the same compound, the “number of cells maintained after 11 days of hypoxic stress” value (C2C12 murine myoblasts; 1, 2 and 5 mM adenosine, 0.1% hypoxia, day 11) was “two to four”, the “proliferation after transfer to normal oxygen tension” value (C2C12 murine myoblasts; 1, 2 and 5 mM adenosine, after 11 days 0.1% hypoxia) was “resumed their proliferation at a growth rate comparable to that in normoxic cells” and the “most effective adenosine concentration” value (C2C12 murine myoblasts; C2C12 survival, 0.1% hypoxia) was 5 mM. For the same compound, the “time for onset of re-proliferation” value (C2C12 murine myoblasts; after transfer to normoxia, 1, 2, 5 mM) was “concentration-dependent”, the “cellular metabolism under hypoxia” value (C2C12 mouse myoblasts; treated with ADA) was “failed to reduce cellular metabolism and showed increased metabolic activity when compared to control” and the “metabolism after drug and hypoxia removed” value (C2C12 mouse myoblasts; used alone (no ADA)) was “recovered normal metabolism”. For the same compound, the “cellular metabolism under hypoxia” value (C2C12 mouse myoblasts; used alone (no ADA)) was “minimized cellular metabolism”, the “myotube formation (differentiating capability)” value (C2C12 cells [3]) was “showed capability of forming myotubes” and the “degree of muscle damage (H&E)” value (Soleus muscle tissues) was “tissues cultured without adenosine showed more damage than those treated with 5 mM adenosine”. For the same compound, the “dead cells as percentage of number of DAPI-stained cells” value (Soleus muscle tissues; EthD-1) was 46% and the “number of live nuclei (TUNEL)” value [4] was “slightly increased live nuclei”.
